Measurements reported in ChEMBL document CHEMBL3351874, “Rational design of inhibitors of the bacterial cell wall synthetic enzyme GlmU using virtual screening and lead-hopping” (Bioorg Med Chem, 2014).
pIC50: −log10 of the molar value.

Experiments:
[1] = Inhibition of Haemophilus influenzae ATCC 51907 GlmU expressed in Escherichia coli BL21(DE3) incubated for 15 mins prior to MgCl2 addition measured after 30 mins by malachite green staining-based assay
[2] = Serum protein binding in human at 10 uM after 30 mins by ultrafiltration method; format: ADME; settings: read-out: PB (converted)
[3] = target: T1, Interleukin-1 receptor-associated kinase 4 (Homo sapiens, UniProt Q9NWZ3); assay: Inhibition of human IRAK4 incubated for 20 mins prior to MgCl2 addition measured after 90 mins by mobility shift assay
T1 sequence (Q9NWZ3 whole entry): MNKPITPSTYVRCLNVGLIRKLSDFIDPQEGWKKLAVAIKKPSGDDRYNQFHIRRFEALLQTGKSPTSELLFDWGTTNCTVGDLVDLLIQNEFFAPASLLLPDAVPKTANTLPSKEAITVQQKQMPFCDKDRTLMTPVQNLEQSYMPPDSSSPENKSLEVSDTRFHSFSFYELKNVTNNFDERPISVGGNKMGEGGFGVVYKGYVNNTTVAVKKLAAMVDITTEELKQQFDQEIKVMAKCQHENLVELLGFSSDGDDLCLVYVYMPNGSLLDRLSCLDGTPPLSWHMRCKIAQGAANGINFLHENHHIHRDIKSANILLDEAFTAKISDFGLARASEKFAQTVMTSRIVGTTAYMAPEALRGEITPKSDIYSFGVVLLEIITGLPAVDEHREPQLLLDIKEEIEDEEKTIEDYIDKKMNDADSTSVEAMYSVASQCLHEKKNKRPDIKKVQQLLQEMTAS

[4] = target: T2, Tyrosine-protein kinase JAK3 (Homo sapiens, UniProt P52333); assay: Inhibition of human JAK3 incubated for 20 mins prior to MgCl2 addition measured after 90 mins by mobility shift assay
T2 sequence (P52333 whole entry): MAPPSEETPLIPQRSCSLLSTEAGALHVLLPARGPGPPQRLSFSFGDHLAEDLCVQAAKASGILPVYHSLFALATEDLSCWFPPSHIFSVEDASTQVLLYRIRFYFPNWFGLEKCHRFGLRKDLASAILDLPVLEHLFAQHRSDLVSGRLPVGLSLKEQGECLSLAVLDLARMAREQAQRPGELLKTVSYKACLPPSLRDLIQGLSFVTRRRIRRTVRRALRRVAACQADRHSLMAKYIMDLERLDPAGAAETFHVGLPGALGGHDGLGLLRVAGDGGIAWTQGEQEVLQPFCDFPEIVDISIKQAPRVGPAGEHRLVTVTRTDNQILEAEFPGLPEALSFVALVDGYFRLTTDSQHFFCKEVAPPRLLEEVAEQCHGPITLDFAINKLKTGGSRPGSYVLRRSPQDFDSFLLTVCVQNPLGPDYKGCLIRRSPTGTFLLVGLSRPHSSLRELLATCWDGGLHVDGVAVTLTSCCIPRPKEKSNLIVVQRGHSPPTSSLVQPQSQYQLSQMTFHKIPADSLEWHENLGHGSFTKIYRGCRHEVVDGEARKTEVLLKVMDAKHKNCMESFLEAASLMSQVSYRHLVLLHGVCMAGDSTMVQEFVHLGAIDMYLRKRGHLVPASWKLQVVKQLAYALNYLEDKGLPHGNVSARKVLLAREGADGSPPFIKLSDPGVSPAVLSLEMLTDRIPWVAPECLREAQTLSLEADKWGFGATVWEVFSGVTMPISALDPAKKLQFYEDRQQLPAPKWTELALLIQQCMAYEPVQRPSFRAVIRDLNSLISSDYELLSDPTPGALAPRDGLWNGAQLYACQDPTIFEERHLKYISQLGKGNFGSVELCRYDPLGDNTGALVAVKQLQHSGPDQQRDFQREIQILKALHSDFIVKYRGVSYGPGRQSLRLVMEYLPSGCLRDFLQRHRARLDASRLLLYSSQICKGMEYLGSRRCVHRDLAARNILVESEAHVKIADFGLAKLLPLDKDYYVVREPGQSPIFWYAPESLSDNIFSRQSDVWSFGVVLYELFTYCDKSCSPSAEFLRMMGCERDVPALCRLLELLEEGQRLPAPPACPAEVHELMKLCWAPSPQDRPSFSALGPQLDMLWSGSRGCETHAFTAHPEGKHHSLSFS

[5] = target: Cyclin-dependent kinase 1 (Homo sapiens, UniProt P06493); assay: Inhibition of human CDK1 incubated for 20 mins prior to MgCl2 addition measured after 90 mins by mobility shift assay
Sequence of Cyclin-dependent kinase 1 (P06493 whole entry): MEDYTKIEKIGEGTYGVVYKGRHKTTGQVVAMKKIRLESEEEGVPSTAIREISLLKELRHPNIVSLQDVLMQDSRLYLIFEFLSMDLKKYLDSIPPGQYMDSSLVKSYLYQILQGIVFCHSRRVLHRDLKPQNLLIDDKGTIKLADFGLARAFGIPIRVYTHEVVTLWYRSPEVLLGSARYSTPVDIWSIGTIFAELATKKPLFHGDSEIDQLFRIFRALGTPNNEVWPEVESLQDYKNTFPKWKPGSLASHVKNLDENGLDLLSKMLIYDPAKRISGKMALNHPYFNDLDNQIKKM

[6] = target: Tyrosine-protein kinase JAK1 (Homo sapiens, UniProt P23458); assay: Inhibition of human JAK1 incubated for 20 mins prior to MgCl2 addition measured after 90 mins by mobility shift assay
Sequence of Tyrosine-protein kinase JAK1 (P23458 whole entry): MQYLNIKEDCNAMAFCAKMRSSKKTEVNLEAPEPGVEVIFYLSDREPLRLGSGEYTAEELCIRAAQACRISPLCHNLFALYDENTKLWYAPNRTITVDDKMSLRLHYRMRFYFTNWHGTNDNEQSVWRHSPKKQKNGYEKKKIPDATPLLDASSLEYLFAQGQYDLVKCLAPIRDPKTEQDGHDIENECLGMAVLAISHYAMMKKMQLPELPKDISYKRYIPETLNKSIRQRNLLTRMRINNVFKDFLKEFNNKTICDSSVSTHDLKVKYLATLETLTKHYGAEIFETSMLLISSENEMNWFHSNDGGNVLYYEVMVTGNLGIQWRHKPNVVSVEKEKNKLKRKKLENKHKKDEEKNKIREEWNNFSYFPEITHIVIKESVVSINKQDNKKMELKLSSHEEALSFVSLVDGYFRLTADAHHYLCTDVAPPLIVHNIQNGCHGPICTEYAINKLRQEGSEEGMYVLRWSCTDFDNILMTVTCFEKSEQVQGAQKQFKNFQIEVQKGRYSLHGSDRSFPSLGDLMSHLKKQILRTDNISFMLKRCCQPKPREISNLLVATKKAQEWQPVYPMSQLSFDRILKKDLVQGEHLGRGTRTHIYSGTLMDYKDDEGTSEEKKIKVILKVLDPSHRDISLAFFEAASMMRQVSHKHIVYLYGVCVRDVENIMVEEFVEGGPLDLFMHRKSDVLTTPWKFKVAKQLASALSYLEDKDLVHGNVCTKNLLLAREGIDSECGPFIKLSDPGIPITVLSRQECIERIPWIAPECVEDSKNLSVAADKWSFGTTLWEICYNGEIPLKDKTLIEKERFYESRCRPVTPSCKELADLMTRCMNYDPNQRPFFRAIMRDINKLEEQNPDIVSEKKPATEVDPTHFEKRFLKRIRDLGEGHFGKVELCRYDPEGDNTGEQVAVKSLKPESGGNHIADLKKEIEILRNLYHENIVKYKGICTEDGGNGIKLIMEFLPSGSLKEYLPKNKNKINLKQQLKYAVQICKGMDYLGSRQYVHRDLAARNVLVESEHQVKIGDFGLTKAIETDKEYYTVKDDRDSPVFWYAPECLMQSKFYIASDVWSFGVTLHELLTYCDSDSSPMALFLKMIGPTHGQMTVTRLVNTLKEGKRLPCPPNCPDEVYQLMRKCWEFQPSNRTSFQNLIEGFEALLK

[7] = target: Aurora kinase B (Homo sapiens, UniProt Q96GD4); assay: Inhibition of human AURKB incubated for 20 mins prior to MgCl2 addition measured after 90 mins by mobility shift assay
Sequence of Aurora kinase B (Q96GD4 whole entry): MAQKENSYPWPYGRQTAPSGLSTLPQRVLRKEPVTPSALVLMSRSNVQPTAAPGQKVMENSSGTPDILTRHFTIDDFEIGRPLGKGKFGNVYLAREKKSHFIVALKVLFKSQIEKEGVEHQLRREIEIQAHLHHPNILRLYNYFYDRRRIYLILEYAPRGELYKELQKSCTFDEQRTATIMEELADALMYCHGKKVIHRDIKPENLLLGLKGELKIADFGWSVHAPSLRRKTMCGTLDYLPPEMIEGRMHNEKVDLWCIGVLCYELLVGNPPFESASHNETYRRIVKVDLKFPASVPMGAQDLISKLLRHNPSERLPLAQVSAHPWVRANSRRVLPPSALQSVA

[8] = target: Bifunctional protein GlmU (Escherichia coli, UniProt C3SLB7); assay: Inhibition of Escherichia coli ATCC 27325 GlmU expressed in Escherichia coli HMS174(DE3) incubated for 15 mins prior to MgCl2 addition measured after 30 mins by malachite green staining-based assay
Sequence of Bifunctional protein GlmU (C3SLB7 whole entry): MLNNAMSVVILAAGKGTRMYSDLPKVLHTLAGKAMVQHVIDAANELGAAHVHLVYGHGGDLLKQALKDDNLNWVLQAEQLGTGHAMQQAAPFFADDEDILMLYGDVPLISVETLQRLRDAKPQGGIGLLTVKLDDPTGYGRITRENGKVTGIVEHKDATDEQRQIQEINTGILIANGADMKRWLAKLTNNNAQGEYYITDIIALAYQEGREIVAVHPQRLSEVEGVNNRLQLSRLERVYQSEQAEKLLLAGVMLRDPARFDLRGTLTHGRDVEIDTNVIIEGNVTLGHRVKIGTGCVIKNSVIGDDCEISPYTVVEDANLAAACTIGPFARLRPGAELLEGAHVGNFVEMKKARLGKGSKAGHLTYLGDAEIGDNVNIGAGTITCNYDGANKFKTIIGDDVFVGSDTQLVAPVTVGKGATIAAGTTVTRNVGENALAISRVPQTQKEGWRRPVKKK

[9] = target: Tyrosine-protein kinase JAK2 (Homo sapiens, UniProt O60674); assay: Inhibition of human JAK2 incubated for 20 mins prior to MgCl2 addition measured after 90 mins by mobility shift assay
Sequence of Tyrosine-protein kinase JAK2 (O60674 whole entry): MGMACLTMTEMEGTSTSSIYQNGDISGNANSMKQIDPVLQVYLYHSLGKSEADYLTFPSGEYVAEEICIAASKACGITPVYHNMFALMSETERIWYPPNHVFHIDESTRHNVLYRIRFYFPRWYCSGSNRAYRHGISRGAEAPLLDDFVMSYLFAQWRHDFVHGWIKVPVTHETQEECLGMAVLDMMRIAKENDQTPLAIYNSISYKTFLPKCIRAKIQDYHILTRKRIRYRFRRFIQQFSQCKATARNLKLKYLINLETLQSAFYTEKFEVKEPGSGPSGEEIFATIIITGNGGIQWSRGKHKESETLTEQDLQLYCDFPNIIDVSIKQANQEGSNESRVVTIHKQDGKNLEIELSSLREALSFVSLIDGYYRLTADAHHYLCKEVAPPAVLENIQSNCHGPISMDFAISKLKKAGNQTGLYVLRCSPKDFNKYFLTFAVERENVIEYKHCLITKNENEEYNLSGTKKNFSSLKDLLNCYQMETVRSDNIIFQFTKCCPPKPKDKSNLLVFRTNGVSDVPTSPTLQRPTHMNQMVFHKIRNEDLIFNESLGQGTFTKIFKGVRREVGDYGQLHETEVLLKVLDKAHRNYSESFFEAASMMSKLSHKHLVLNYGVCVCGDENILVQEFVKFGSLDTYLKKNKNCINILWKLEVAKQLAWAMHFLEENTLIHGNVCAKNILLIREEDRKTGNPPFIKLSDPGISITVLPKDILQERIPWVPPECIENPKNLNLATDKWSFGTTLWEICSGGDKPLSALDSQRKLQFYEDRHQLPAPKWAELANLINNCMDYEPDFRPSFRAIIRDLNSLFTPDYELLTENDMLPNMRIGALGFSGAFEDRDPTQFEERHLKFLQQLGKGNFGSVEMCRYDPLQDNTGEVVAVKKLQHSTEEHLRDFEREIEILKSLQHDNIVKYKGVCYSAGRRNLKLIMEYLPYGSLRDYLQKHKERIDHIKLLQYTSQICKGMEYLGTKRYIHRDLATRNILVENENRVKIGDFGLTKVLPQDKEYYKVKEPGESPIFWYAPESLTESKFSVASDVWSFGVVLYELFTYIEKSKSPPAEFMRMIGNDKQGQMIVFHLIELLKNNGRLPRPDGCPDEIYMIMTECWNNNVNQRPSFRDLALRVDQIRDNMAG

[10] = target: Interleukin-1 receptor-associated kinase 1 (Homo sapiens, UniProt P51617); assay: Inhibition of human IRAK1 incubated for 20 mins prior to MgCl2 addition measured after 90 mins by mobility shift assay
Sequence of Interleukin-1 receptor-associated kinase 1 (P51617 whole entry): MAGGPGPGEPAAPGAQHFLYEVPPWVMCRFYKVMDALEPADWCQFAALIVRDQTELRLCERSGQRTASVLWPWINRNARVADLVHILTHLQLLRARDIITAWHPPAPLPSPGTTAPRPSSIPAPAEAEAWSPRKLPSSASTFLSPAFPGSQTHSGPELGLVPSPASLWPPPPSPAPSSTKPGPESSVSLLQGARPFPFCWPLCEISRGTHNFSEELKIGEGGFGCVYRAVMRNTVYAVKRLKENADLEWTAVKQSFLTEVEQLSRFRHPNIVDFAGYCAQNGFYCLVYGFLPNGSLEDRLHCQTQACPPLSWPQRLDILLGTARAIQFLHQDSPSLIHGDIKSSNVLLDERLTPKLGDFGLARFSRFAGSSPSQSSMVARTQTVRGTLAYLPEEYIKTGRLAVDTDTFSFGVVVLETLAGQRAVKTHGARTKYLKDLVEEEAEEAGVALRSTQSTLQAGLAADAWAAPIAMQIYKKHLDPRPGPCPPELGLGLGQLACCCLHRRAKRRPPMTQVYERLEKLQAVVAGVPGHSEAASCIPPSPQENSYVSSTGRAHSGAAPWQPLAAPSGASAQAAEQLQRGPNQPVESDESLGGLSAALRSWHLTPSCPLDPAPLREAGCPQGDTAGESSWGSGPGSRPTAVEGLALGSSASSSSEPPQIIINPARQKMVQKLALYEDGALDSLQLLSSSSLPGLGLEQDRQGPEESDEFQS

[11] = target: Cyclin-dependent kinase 2 (Homo sapiens, UniProt P24941); assay: Inhibition of human CDK2 incubated for 20 mins prior to MgCl2 addition measured after 90 mins by mobility shift assay
[12] = target: Cyclin-dependent kinase 9 (Homo sapiens, UniProt P50750); assay: Inhibition of human CDK9 incubated for 20 mins prior to MgCl2 addition measured after 90 mins by mobility shift assay
Sequence of Cyclin-dependent kinase 9 (P50750 whole entry): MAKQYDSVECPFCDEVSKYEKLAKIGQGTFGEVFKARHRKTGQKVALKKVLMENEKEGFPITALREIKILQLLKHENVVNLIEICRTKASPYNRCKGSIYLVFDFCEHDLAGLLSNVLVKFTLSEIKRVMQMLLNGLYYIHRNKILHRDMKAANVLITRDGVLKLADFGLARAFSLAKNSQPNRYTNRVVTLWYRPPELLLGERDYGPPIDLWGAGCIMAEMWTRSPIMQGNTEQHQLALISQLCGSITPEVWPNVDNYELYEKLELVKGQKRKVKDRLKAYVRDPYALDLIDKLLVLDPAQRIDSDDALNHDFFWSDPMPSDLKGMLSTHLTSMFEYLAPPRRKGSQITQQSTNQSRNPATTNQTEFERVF

COc1ccc(C(=O)Nc2ccc(NC(=O)c3ccccn3)cc2)cc1-c1c[nH]c(=O)[nH]c1=O
pIC50 [1]: 6.02 | fraction unbound at 0.5 h, 10 µM [2]: < 0.01 | pIC50 [3]: < 4.52 | pIC50 [4]: < 4.52 | pIC50 [5]: < 4.52 | pIC50 [6]: < 4.52 | pIC50 [7]: < 4.52 | pIC50 [8]: < 4.66 | pIC50 [9]: < 4.52 | pIC50 [10]: < 4.52 | pIC50 [11]: < 4.52 | pIC50 [12]: < 4.52

O=c1[nH]cc(-c2cccc([N+](=O)[O-])c2)c(=O)[nH]1
pIC50 [1]: 2.71

COc1cc2c(Nc3ccc(NC(=O)c4ccccc4)cc3)nc(Cl)nc2cc1O
pIC50 [1]: 6.19 | fraction unbound at 0.5 h, 10 µM [2]: 0.021 | pIC50 [8]: 6.43

O=C(Nc1ccc(NC(=O)c2ccccn2)cc1)c1ccc(O)c([N+](=O)[O-])c1
pIC50 [1]: 7.30 | fraction unbound at 0.5 h, 10 µM [2]: < 0.01 | pIC50 [3]: < 4.52 | pIC50 [4]: < 4.52 | pIC50 [5]: < 4.52 | pIC50 [6]: < 4.52 | pIC50 [7]: 4.64 | pIC50 [8]: 5.51 | pIC50 [9]: < 4.52 | pIC50 [10]: < 4.52 | pIC50 [11]: < 4.52 | pIC50 [12]: < 4.52

COc1cc2c(Nc3ccc(NC(=O)c4ccccc4)cc3)ncnc2cc1OCC(=O)O
pIC50 [1]: 5.49 | fraction unbound at 0.5 h, 10 µM [2]: < 0.01 | pIC50 [3]: < 4.52 | pIC50 [4]: < 4.52 | pIC50 [5]: < 4.52 | pIC50 [6]: < 4.52 | pIC50 [7]: 6.16 | pIC50 [8]: 5.17 | pIC50 [9]: < 4.52 | pIC50 [10]: < 4.52 | pIC50 [11]: < 4.52 | pIC50 [12]: < 4.52

COc1cc(C(=O)Nc2ccc(NC(=O)c3ccccc3)cc2)cc(-c2c[nH]c(=O)[nH]c2=O)c1O
pIC50 [1]: 7.70 | fraction unbound at 0.5 h, 10 µM [2]: 0.019 | pIC50 [8]: 6.59

COc1cc(C(=O)Nc2ccc(NC(=O)c3ccccn3)cc2)cc(-c2c[nH]c(=O)[nH]c2=O)c1
pIC50 [1]: 8.77 | pIC50 [3]: < 4.52 | pIC50 [4]: < 4.52 | pIC50 [5]: < 4.52 | pIC50 [6]: < 4.52 | pIC50 [7]: < 4.52 | pIC50 [8]: 7.57 | pIC50 [9]: < 4.52 | pIC50 [10]: < 4.52 | pIC50 [11]: < 4.52 | pIC50 [12]: < 4.52

O=C(Nc1ccc(NC(=O)c2ccccn2)cc1)c1cccc(-c2c[nH]c(=O)[nH]c2=O)c1
pIC50 [1]: 8.30 | fraction unbound at 0.5 h, 10 µM [2]: 0.019 | pIC50 [3]: < 4.52 | pIC50 [4]: < 4.52 | pIC50 [5]: < 4.52 | pIC50 [6]: < 4.52 | pIC50 [7]: 5.12 | pIC50 [8]: 6.46 | pIC50 [9]: < 4.52 | pIC50 [10]: < 4.52 | pIC50 [11]: < 4.52 | pIC50 [12]: < 4.52

COc1cc(C(=O)Nc2ccc(NC(=O)c3ccccc3)cc2)ccc1OCC(N)=O
pIC50 [1]: < 4.66 | pIC50 [8]: < 4.66

COc1cc2c(Nc3ccc(NC(=O)c4ccccc4)cc3)ncnc2cc1OCCO
pIC50 [1]: 4.72 | pIC50 [3]: 4.61 | pIC50 [4]: < 4.52 | pIC50 [5]: < 4.52 | pIC50 [6]: < 4.52 | pIC50 [7]: 7.56 | pIC50 [8]: 4.46 | pIC50 [9]: < 4.52 | pIC50 [10]: < 4.52 | pIC50 [11]: < 4.52 | pIC50 [12]: < 4.52

COc1cc(C(=O)Nc2ccc(NC(=O)c3ccccn3)cc2)cc(-c2nc(=O)o[nH]2)c1
pIC50 [1]: 5.77 | fraction unbound at 0.5 h, 10 µM [2]: 0.016 | pIC50 [8]: < 4.66

COc1cc2c(Nc3ccc(NC(=O)c4ccccc4)cc3)nc(-c3ccccn3)nc2cc1O
pIC50 [1]: 5.82 | fraction unbound at 0.5 h, 10 µM [2]: < 0.01 | pIC50 [8]: 5.57
